Laboratory results: PubChem BioAssay AID256 (DTP/NCI, 2004)
Toxic doses and inconclusive results are not listed. The calls were made as follows: active = survival T/C of 150% or more; inactive = T/C below 125% in these data.

Tested on: CD2F1 mice, L1210 leukemia ip, survival T/C
Experiment: NCI In Vivo Anticancer Drug Screen. Data for tumor model L1210 Leukemia (intraperitoneal) in CD2F1 (CDF1) mice
Conditions: higher = longer survival
Outline: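 Vehicle-treated tumor-bearing mice served as controls (C) for compound-treated mice (T). Reported figure is T divided by C.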

[1] = endpoint: mean survival time, dose: 12.5 mg/kg/injection, schedule: Q04DX003 (ip), vehicle: saline with Tween-80
[2] = endpoint: mean survival time, dose: 25.0 mg/kg/injection, schedule: Q04DX003 (ip), vehicle: saline with Tween-80
[3] = endpoint: mean survival time, dose: 50.0 mg/kg/injection, schedule: Q04DX003 (ip), vehicle: saline with Tween-80
[4] = endpoint: mean survival time, dose: 25.0 mg/kg/injection, schedule: Q01DX009 (ip), vehicle: saline with Tween-80
[5] = endpoint: mean survival time, dose: 50.0 mg/kg/injection, schedule: Q01DX009 (ip), vehicle: saline with Tween-80
[6] = endpoint: mean survival time, dose: 100.0 mg/kg/injection, schedule: Q01DX009 (ip), vehicle: saline with Tween-80
[7] = endpoint: mean survival time, dose: 100.0 mg/kg/injection, schedule: Q04DX003 (ip), vehicle: saline with Tween-80
[8] = endpoint: mean survival time, dose: 200.0 mg/kg/injection, schedule: Q01DX009 (ip), vehicle: saline with Tween-80
[9] = endpoint: mean survival time, dose: 200.0 mg/kg/injection, schedule: Q04DX003 (ip), vehicle: saline with Tween-80
[10] = endpoint: mean survival time, dose: 400.0 mg/kg/injection, schedule: Q01DX009 (ip), vehicle: saline with Tween-80
[11] = endpoint: mean survival time, dose: 400.0 mg/kg/injection, schedule: Q04DX003 (ip), vehicle: saline with Tween-80
[12] = endpoint: mean survival time, dose: 100.0 mg/kg/injection, schedule: Q01DX001 (ip), vehicle: saline with Tween-80
[13] = endpoint: mean survival time, dose: 200.0 mg/kg/injection, schedule: Q01DX001 (ip), vehicle: saline with Tween-80
[14] = endpoint: mean survival time, dose: 400.0 mg/kg/injection, schedule: Q01DX001 (ip), vehicle: saline with Tween-80
[15] = endpoint: median survival time, dose: 6.25 mg/kg/injection, schedule: Q01DX009 (ip), vehicle: saline
[16] = endpoint: median survival time, dose: 12.5 mg/kg/injection, schedule: Q01DX009 (ip), vehicle: saline
[17] = endpoint: median survival time, dose: 25.0 mg/kg/injection, schedule: Q01DX009 (ip), vehicle: saline
[18] = endpoint: median survival time, dose: 50.0 mg/kg/injection, schedule: Q01DX009 (ip), vehicle: saline
[19] = endpoint: mean survival time, dose: 100.0 mg/kg/injection, schedule: Q04DX002 (ip), vehicle: saline with Tween-80
[20] = endpoint: mean survival time, dose: 200.0 mg/kg/injection, schedule: Q04DX002 (ip), vehicle: saline with Tween-80

Measured: T/C

CC([NH-])CC[NH-].[I][Pt+2][I] (centres undefined)
inactive: [1] 118 % of control | [2] 124 % of control | [3] 109 % of control

CCCCCCCCCCCCCOc1ccc2ccccc2c1
inactive: endpoint: mean survival time, dose: 100.0 mg/kg/injection, schedule: Q01DX001 (ip), vehicle: Klucel (hydroxypropylcellulose) (HPC) 107 % of control | endpoint: mean survival time, dose: 200.0 mg/kg/injection, schedule: Q01DX001 (ip), vehicle: Klucel (hydroxypropylcellulose) (HPC) 96 % of control | endpoint: mean survival time, dose: 400.0 mg/kg/injection, schedule: Q01DX001 (ip), vehicle: Klucel (hydroxypropylcellulose) (HPC) 87 % of control

CCCC(CCC)(CNC(C)=O)C1CCCCC1
inactive: endpoint: mean survival time, dose: 75.0 mg/kg/injection, schedule: Q01DX001 (ip), vehicle: saline 98 % of control | endpoint: mean survival time, dose: 150.0 mg/kg/injection, schedule: Q01DX001 (ip), vehicle: saline 88 % of control | endpoint: mean survival time, dose: 300.0 mg/kg/injection, schedule: Q01DX001 (ip), vehicle: saline 87 % of control

O=C(c1cc2c3ccccc3ccc2c2ccccc12)C(Br)Br
inactive: [4] 106 % of control | [5] 103 % of control | [6] 100 % of control | [7] 93 % of control

CCCCCCCCCCCCCCCCCCNC(=O)Nc1ccc(C)c(C)c1
inactive: [6] 104 % of control | [7] 91 % of control | [8] 105 % of control | [9] 89 % of control | [10] 105 % of control | [11] 98 % of control

COC(=O)C1CCC(N(C)S(=O)(=O)c2ccc(C)cc2)CC1 (centres undefined)
inactive: endpoint: mean survival time, dose: 100.0 mg/kg/injection, schedule: Q01DX009 (ip), vehicle: Klucel (hydroxypropylcellulose) (HPC) 100 % of control | endpoint: mean survival time, dose: 200.0 mg/kg/injection, schedule: Q01DX009 (ip), vehicle: Klucel (hydroxypropylcellulose) (HPC) 96 % of control | endpoint: mean survival time, dose: 400.0 mg/kg/injection, schedule: Q01DX009 (ip), vehicle: Klucel (hydroxypropylcellulose) (HPC) 92 % of control

O=C(CCCN1CCC2(CC1)CNC(=O)N2c1ccccc1)c1ccc(F)cc1
inactive: [12] 101 % of control | [13] 98 % of control | [14] 91 % of control

CCCCN(CCCC)P1(=O)OCCO1
inactive: endpoint: mean survival time, dose: 100.0 mg/kg/injection, schedule: Q04DX002 (ip), vehicle: saline 103 % of control | endpoint: mean survival time, dose: 200.0 mg/kg/injection, schedule: Q04DX002 (ip), vehicle: saline 107 % of control | endpoint: mean survival time, dose: 400.0 mg/kg/injection, schedule: Q04DX002 (ip), vehicle: saline 98 % of control

O=C(/C(=C\c1ccccc1)N1CCOCC1)c1ccc(Cl)cc1
inactive: [4] 95 % of control | [5] 97 % of control | [6] 86 % of control

C=C(C)[C@H]1CN[C@H](C(=O)O)[C@H]1CC(=O)O
inactive: endpoint: mean survival time, dose: 5.0 mg/kg/injection, schedule: Q01DX001 (ip), vehicle: saline 94 % of control | endpoint: median survival time, dose: 0.31 mg/kg/injection, schedule: Q01DX009 (ip), vehicle: saline with Tween-80 103 % of control | endpoint: median survival time, dose: 0.62 mg/kg/injection, schedule: Q01DX009 (ip), vehicle: saline with Tween-80 101 % of control | endpoint: median survival time, dose: 1.25 mg/kg/injection, schedule: Q01DX009 (ip), vehicle: saline with Tween-80 100 % of control | endpoint: median survival time, dose: 2.5 mg/kg/injection, schedule: Q01DX009 (ip), vehicle: saline with Tween-80 101 % of control | endpoint: median survival time, dose: 2.5 mg/kg/injection, schedule: Q01DX009 (ip), vehicle: saline 96 % of control | endpoint: median survival time, dose: 5.0 mg/kg/injection, schedule: Q01DX009 (ip), vehicle: saline with Tween-80 101 % of control | endpoint: median survival time, dose: 5.0 mg/kg/injection, schedule: Q01DX009 (ip), vehicle: saline 103 % of control | [15] 104 % of control | endpoint: median survival time, dose: 10.0 mg/kg/injection, schedule: Q01DX009 (ip), vehicle: saline with Tween-80 101 % of control | endpoint: median survival time, dose: 10.0 mg/kg/injection, schedule: Q01DX009 (ip), vehicle: saline 101 % of control | [16] 108 % of control | endpoint: median survival time, dose: 20.0 mg/kg/injection, schedule: Q01DX009 (ip), vehicle: saline 95 % of control | [17] 97 % of control | endpoint: median survival time, dose: 40.0 mg/kg/injection, schedule: Q01DX009 (ip), vehicle: saline 93 % of control | [18] 96 % of control

Cc1ncc(CO)c(C2NOCc3ccc(Cl)cc32)c1O (centres undefined)
inactive: endpoint: mean survival time, dose: 25.0 mg/kg/injection, schedule: Q01DX009 (ip), vehicle: Klucel (hydroxypropylcellulose) (HPC) 96 % of control | endpoint: mean survival time, dose: 50.0 mg/kg/injection, schedule: Q01DX009 (ip), vehicle: Klucel (hydroxypropylcellulose) (HPC) 98 % of control

C/C=C(/CCCCC)C(=O)OCC
inactive: [6] 106 % of control | [8] 100 % of control | [10] 101 % of control

COc1cc(NC(=O)CCl)ccc(=O)c1
inactive: endpoint: mean survival time, dose: 12.5 mg/kg/injection, schedule: Q01DX009 (ip), vehicle: saline with Tween-80 106 % of control | [1] 99 % of control | [4] 104 % of control | [2] 91 % of control | [5] 90 % of control | [3] 94 % of control

O=[N+]([O-])c1c(O)c(CNCCCO)cc(CNCCCO)c1O
inactive: [15] 100 % of control | [16] 97 % of control | [17] 88 % of control | [18] 92 % of control

O=C1CCC(=O)N1C1c2ccccc2Oc2ccccc21
inactive: endpoint: mean survival time, dose: 100.0 mg/kg/injection, schedule: Q01DX009 (ip), vehicle: saline 96 % of control | endpoint: mean survival time, dose: 200.0 mg/kg/injection, schedule: Q01DX009 (ip), vehicle: saline 91 % of control | endpoint: mean survival time, dose: 400.0 mg/kg/injection, schedule: Q01DX009 (ip), vehicle: saline 92 % of control

COc1c(C)c2c(c3c1CC(O)O3)C(=O)OC2 (centres undefined)
inactive: [19] 112 % of control | [20] 103 % of control | endpoint: mean survival time, dose: 400.0 mg/kg/injection, schedule: Q04DX002 (ip), vehicle: saline with Tween-80 106 % of control

Cc1ccc(S(=O)(=O)Nc2ccccc2)c(C(O)(c2ccccc2)c2ccccc2)c1
inactive: [7] 95 % of control | [9] 106 % of control | [11] 95 % of control

CC(=O)Oc1cc(C(C)(C)C)c(OC(C)=O)c(N=[N+]=[N-])c1C(C)(C)C
inactive: [7] 96 % of control | [9] 101 % of control | [11] 96 % of control

COc1ccc(C(O)(c2ccccc2)C(OC(=O)c2cc([N+](=O)[O-])cc([N+](=O)[O-])c2)c2ccccc2)cc1 (centres undefined)
inactive: [12] 87 % of control | [13] 94 % of control | [14] 91 % of control

COc1cccc(/C(C)=N\NC(=O)c2ccccc2)c1
inactive: [4] 98 % of control | [5] 95 % of control | [6] 88 % of control | [7] 96 % of control

C=CN1CCCC1=O (tested in a mixture with another compound)
inactive: [7] 95 % of control | [9] 91 % of control | [11] 98 % of control

[Cl][Pt+2][Cl].[NH-]CCO.[NH-]CCO
inactive: endpoint: mean survival time, dose: 12.5 mg/kg/injection, schedule: Q04DX003 (ip), vehicle: saline 102 % of control | endpoint: mean survival time, dose: 50.0 mg/kg/injection, schedule: Q04DX003 (ip), vehicle: saline 118 % of control

C=CCCCCC(=O)c1ccccc1
inactive: endpoint: mean survival time, dose: 50.0 mg/kg/injection, schedule: Q04DX002 (ip), vehicle: saline with Tween-80 100 % of control | [19] 93 % of control | [20] 104 % of control
